Assay: Human HepG2 cell viability assay in 384 well format
Assay type: toxicity, cell-based
Set-up: dose 125 nL, time 70.5 hour; concentration not given beside the values
Details: HepG2 cells, read-out: Inhibition

Row | SMILES | cytotoxicity at 70.5 h [%]
1 | CCCn1ncc(C(=O)N(Cc2cccnc2)C[C@@H]2CCC(=O)N2)c1C | -5.8
2 | CC(C)Cc1cc(C(=O)NC(C)(C)CN2CCCCCC2)on1 | -4.52
3 | COc1cccc2c1OCC(C(=O)N1CCN(C3CCSCC3)CC1)C2 (stereo not drawn) | -7.23
4 | CC(=O)c1ccc(CN2CCCC23CCN(c2ccccn2)CC3)cc1 | -25.1
5 | CC(C)(O)CCc1ccc(C(=O)NCC2CCCOC2)cc1 (stereo not drawn) | -2.37
6 | CN1CCN(c2cnn(Cc3ccc(S(C)(=O)=O)cc3)c(=O)c2)CC1 | -2.57
7 | CCn1cc(CN2CCCC(COc3ccccc3F)C2)cn1 (stereo not drawn) | 10.5
8 | O=C(N[C@H]1COC[C@@H]1N1CCCC1)c1c[nH]nc1C1CCCCC1 | -4.22
9 | COc1ccc(F)cc1CN1CCC(O)(CN2CCCCC2)C1 (stereo not drawn) | -6.56
10 | CCOc1ccc(C(=O)CCC(=O)N(C)Cc2snnc2C)cc1C | -7.49
11 | CC(C)c1nc(C(=O)N2CCCC(N)CC2)cs1 (stereo not drawn) | 25.2
12 | CC(c1cncs1)N(C)Cc1ccc(CCC(C)(C)O)cc1 (stereo not drawn) | -5.33
13 | CCc1cc(CN(C)C(=O)CN2CC(c3ccccc3)CC2=O)on1 (stereo not drawn) | 3.32
14 | O=C(CSCC1CC1)N1CCCC(c2nccn2Cc2ccccn2)C1 (stereo not drawn) | 0.457
15 | CCN(Cc1ccncc1)C(=O)C(C)n1ccnc1C(C)C (stereo not drawn) | -11.1
16 | COCCC1(CO)CCCN(Cc2ccncc2)C1 (stereo not drawn) | -3.98
17 | CCN(Cc1ccncc1)c1cc(C2CCCNC2)nc(C)n1 (stereo not drawn) | -7.35
18 | COCCN(C)C[C@@H]1CN(C(=O)NC2CCCCC2)C[C@@H]1CO | -8.61
19 | Cc1cc(C(=O)N2CCNC(c3ccccc3)C2)c2ccc(F)cc2n1 (stereo not drawn) | -4.04
20 | CC(C)n1cnnc1CN(C)CC1CCOC1 (stereo not drawn) | -11.8
21 | O=C1OCCN1Cc1ccc(C(F)(F)F)cc1F | -6.21
22 | CN(Cc1noc2c1CCCC2)C(=O)C1Cc2ccccc2CN1C (stereo not drawn) | -6.59
23 | Cc1ccccc1C1CCN(CCn2cc(-c3nccn3C)nn2)C1 (stereo not drawn) | 2.36

Row | SMILES | cytotoxicity at 70.5 h [%]
24 | Cc1nc(NC(=O)N(C)Cc2ccoc2)nn1C | -4.45
25 | OC1COCCN(Cc2cccc(N3CCOCC3)c2)C1 (stereo not drawn) | -5.01
26 | CCOCCn1c(=O)[nH]c2cc(C(=O)N(C)Cc3cc(C)[nH]n3)ccc21 | -6.23
27 | OCc1ccc(CN2CCC(n3cc(C4CCCCC4)nn3)CC2)o1 | -7.14
28 | O=C1CC[C@@H](C(=O)N2CCC(Cn3cc(C4CCCCC4)nn3)CC2)N1 | -1.59
29 | CC(=O)NCCC1CCN(c2nc(C(C)(C)C)nc3c2cnn3C)CC1 | -1.1
30 | COc1ccc(F)c(F)c1C(=O)N1C[C@@H](CN(C)CCO)[C@@H](CO)C1 | 17
31 | OCCc1ncnn1Cc1cccc(Cl)c1 | 44.4
32 | O=C(NCCN1CCCC(CO)C1)c1ccc2scnc2c1 (stereo not drawn) | -13.1
33 | O=C(CCC1CCN(C2CSCCSC2)CC1)NCC1CCCO1 (stereo not drawn) | -7.42
34 | COc1ccccc1[C@@H]1CN(Cc2cnn(C)c2C)C[C@H]1C(=O)O | 7.39
35 | Cc1nc(CN(C)C)cc(N2CCCC(COc3ccc(F)cc3)C2)n1 (stereo not drawn) | -5.18
36 | CCC(C(=O)NC(C)(C)C)n1ccc2ncccc2c1=O (stereo not drawn) | -17.5
37 | COCc1nnc(C(=O)N(C)Cc2ccc(OC)cc2)o1 | -0.9
38 | Cc1cnn(CCC(=O)N2CCC3(CCC(=O)N(CC4CC4)C3)CC2)c1 | -6.95
39 | CN(CCCc1cnn(C)c1)Cc1cc2n(n1)CCNC2 | -4.75
40 | CC(c1cccnc1)N(C)Cc1cc2cc3c(cc2[nH]c1=O)OCO3 (stereo not drawn) | 2.59
41 | COc1cccn(CC(=O)N2CCC3(CCNCC3)C2)c1=O | -13.1
42 | Cc1cc2[nH]c(CN3CCOC(Cc4ccccc4)C3)cc(=O)n2n1 (stereo not drawn) | 18.7
43 | COCCCN1CC2(CCCN(CCn3cc(Cl)cn3)C2)CCC1=O (stereo not drawn) | -21.9
44 | Cn1ccnc1C(=O)N1CCCC1c1ccc(C(=O)N2CCOCC2)s1 (stereo not drawn) | -2.53
45 | Cc1c[nH]c(CN2CCOC(c3ccc(Cl)cc3)C2)c(C)c1=O (stereo not drawn) | -4.57
46 | CCCc1cncnc1N1CCC2(CCC(=O)N(C3CCCC3)C2)CC1 | -12.7

Row | SMILES | cytotoxicity at 70.5 h [%]
47 | CN(c1ncccc1CNC(=O)c1csnn1)C1CCCCC1 | 26.5
48 | CN(Cc1ccccc1CN1CCCC1)C(=O)c1c[nH]c(=O)[nH]1 | -10.8
49 | CC1(C(=O)NCc2cccnc2Oc2ccc(F)cc2F)CCCNC1 (stereo not drawn) | -18.2
50 | Cc1c(C2CCOC(C)(C)C2)nc(N)c(C#N)c1-c1ccc(O)cc1 (stereo not drawn) | 11.3
51 | CNC(=O)[C@@H]1C[C@H](N)CN1S(=O)(=O)c1cc(C)c(Cl)cc1C | 1.05
52 | O=C(c1c[nH]nc1-c1cccc(F)c1)N1CCNC(c2ccccc2)C1 (stereo not drawn) | -9.77
53 | COc1cccc(C)c1C(=O)N1CCc2ncnc(NCCO)c2CC1 | -7.07
54 | COc1ccc(-c2nc3c([nH]2)CCNC3C(=O)O)c2ccccc12 (stereo not drawn) | -7.46
55 | CN(CCCOc1ccccc1Cl)C(=O)CN1CCNC1=O | -1.34
56 | COc1cc(CN(C)C(C)c2ccccn2)cc2c1OCO2 (stereo not drawn) | -13.1
57 | O=C(NC1CC(=O)N(C2Cc3ccccc3C2)C1)c1cnccn1 (stereo not drawn) | -4.83
58 | CC(=O)NC1CCN(c2cc(-c3ccccc3)nc3c(C)c(C)nn23)C1 (stereo not drawn) | -2.22
59 | CCCOC1CCCN(C(=O)c2cc(CN(CC)CC)c(CC)o2)C1 (stereo not drawn) | 17.7
60 | Cc1ccc(-c2nnc(CCC(=O)NCc3cn(C)nc3C)o2)s1 | -9.67
61 | c1ccc2c(c1)CC(N1CCCN(Cc3cccc4nonc34)CC1)C2 | 21.6
62 | N#CC1(C(=O)N2C[C@H]3CC[C@@H]2CN(Cc2ccncc2)C3)CCOCC1 | -23.5
63 | N#Cc1ccc(C(=O)N2C[C@@H](CN3CCCC3)C[C@H](CO)C2)cc1 | -2.46
64 | CCOCCC(=O)N(C)Cc1noc(C(C)C)n1 | 24.4
65 | CCN(CC1CCOCC1)C(=O)Cn1ccccc1=O | -9.29
66 | CNc1nc2c(c(C(=O)N3CCCC3)n1)CN(Cc1ccco1)CC2 | -3.76
67 | CNc1cc(C(=O)N2CCCCC2CCn2ccnc2C)ccn1 (stereo not drawn) | -2.8
68 | O=C1CCCN1CCCC(=O)N1CCC2(CC1)[C@H](O)C[C@@H]2O | -0.254
69 | O=C1CC(C(=O)O)C2(CCN(C(=O)NCc3ccc(Cl)cc3)CC2)N1 (stereo not drawn) | -2.42

Row | SMILES | cytotoxicity at 70.5 h [%]
70 | CO[C@H]1C[C@@H](O)C12CCN(C(=O)CCCOc1ccccc1)CC2 | -8.27
71 | CCN(Cc1ccncc1)C(=O)CCn1c(C)cc2ccccc21 | -3.9
72 | CN(CCc1ccccn1)c1cc(N2CCCCC2)ncn1 | -6.31
73 | COc1ccc(Oc2cccc(C#N)n2)cc1CN1CCCC1 | -1.4
74 | OC1(CNCc2csc(-c3ncccn3)n2)CCCNC1 (stereo not drawn) | -5.29
75 | Cc1ccccc1OCC1CCCN(C(=O)CN(C)C2CCNCC2)C1 (stereo not drawn) | -4.15
76 | Cc1cc(NC(=O)CNCc2csc(-c3ncccn3)n2)ccc1Cl | -14.6
77 | COc1ccccc1OCc1cc(C(=O)N2CCN(C(C)=O)CC2)n[nH]1 | -5.97
78 | O=C1CC(NCc2ccccn2)CN1CCc1ccc(F)cc1 (stereo not drawn) | 20.5
79 | COCc1nc(CNC2CCC3(CCNCC3)CC2)no1 | -8.94
80 | Cc1ncc(CN2CCCC2c2ccc(C(=O)NCc3ccoc3)s2)s1 (stereo not drawn) | -0.861
81 | Cc1ccc2[nH]nc(C(=O)NCC3CCN(Cc4c[nH]cn4)C3)c2c1 (stereo not drawn) | -5.7
82 | O=C(CC1CNCCO1)N1CCC(c2cc(N3CCCC3)ncn2)CC1 (stereo not drawn) | 12.3
83 | CCCOC1CCCN(C(=O)c2ccc(S(N)(=O)=O)cc2)C1 (stereo not drawn) | -3.49
84 | O=C(NCc1cc(N2CCOCC2)ncn1)c1cccc(CO)n1 | 5.15
85 | COc1ccc(CC2(C(=O)O)CCN(c3nc(C)ncc3C)CC2)cc1 | -10.8
86 | Cc1nc2c(NCC(C)N(C)c3ccccc3)ncnc2o1 (stereo not drawn) | -5.13
87 | O=C1N(Cc2ccc(F)c(F)c2)CCCC1(O)CNCc1ncc[nH]1 (stereo not drawn) | -1.39
88 | COCCc1noc(CNC2CCCC(C)(C)C2)n1 (stereo not drawn) | -4.63
89 | Cc1c(Cn2ccnc2-c2cc(CN(C)C)cs2)cnn1C | 3.72
90 | Cc1csc2ncnc(N3CCC(Cn4cc(C(C)(C)N)nn4)CC3)c12 | 2.54
91 | CN1CC2(CCCN(c3nc(N)nc4c3CCCC4)C2)OC1=O (stereo not drawn) | -10.1
92 | CCCn1ncc(C(=O)N(C)Cc2cc(C3CC3)[nH]n2)c1C | 0.995

Row | SMILES | cytotoxicity at 70.5 h [%]
93 | Cc1nc(N[C@H]2COC[C@@H]2N2CCCC2)c2cnn(C)c2n1 | -8.31
94 | Cc1nc(N)sc1C(=O)N1CCC(C(O)Cc2ccccc2)CC1 (stereo not drawn) | -7.21
95 | CC(C)n1cnnc1CN(C)C(=O)C1CCCN(CC(N)=O)C1 (stereo not drawn) | -10.5
96 | CCC(C)N(Cc1sccc1C)C(=O)c1cc(N)ccn1 (stereo not drawn) | -11.9
97 | CC(C)c1nc(CN(C)Cc2cnc(N3CCOCC3)nc2)no1 | -6.44
98 | CN(Cc1ccccc1)CC(O)Cn1cnc2sccc2c1=O (stereo not drawn) | -8.79
99 | CCS(=O)(=O)N1CCC(NC(=O)c2ccccc2O)CC1 | -6.17
100 | Cc1cc(C(=O)O)cc(S(=O)(=O)Nc2ccc3c(c2)OCCO3)c1C | -3.8
101 | CCS(=O)(=O)N1CCC(NC(=O)c2cc3ccccc3cc2O)CC1 | 12.9
102 | CN(Cc1ccccc1)CC(O)Cn1cnc2ccc(Br)cc2c1=O (stereo not drawn) | -5.18
103 | CCS(=O)(=O)N1CCC(NC(=O)c2cc(C)ccc2O)CC1 | -5.66
104 | CC(C#N)CN(C)Cc1nc2c(cnn2C)c(=O)[nH]1 (stereo not drawn) | -7.12
105 | CC(C)CCN(CCC(C)C)Cc1nc2c(cnn2C)c(=O)[nH]1 | 2.1
106 | CN(Cc1ccccc1)CC(O)Cn1cnc2cc(F)ccc2c1=O (stereo not drawn) | -7.28
107 | Cc1ccccc1OCCCC(=O)NCC1CN(C)CCO1 (stereo not drawn) | -1.6
108 | N#Cc1ccc(S(=O)(=O)NC(=O)COc2ccc3c(c2)CCC3)cc1 | -1.54
109 | CC(C)CCN(C(=O)c1nc(S(C)(=O)=O)n2ccccc12)C1CC1 | -1.14
110 | Cc1ccc(C(=O)N2CCCC(n3cccn3)C2)cc1S(C)(=O)=O (stereo not drawn) | 0.0611
111 | Cc1ccc2oc(C(=O)N3CCCC(n4cccn4)C3)cc2n1 (stereo not drawn) | 21.1
112 | Cc1cnn(C2CCCN(C(=O)c3cc4nc(C)ccc4o3)C2)c1 (stereo not drawn) | -5.06
113 | COc1ccc(CNCc2ccnc(N3CCCC3)c2)c(OC)c1 | -1.69

— ChEMBL document CHEMBL3507680, “University of Dundee, Gates Library screen for HepG2 cell viability”
